This is an account of results in ChEMBL document CHEMBL1201862, “PubChem BioAssay data set” (2004).

Molecules are shown by their SMILES.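 Step 1: Grow cells in 96-well plates. Step 2: Expose to compound for 48 hours at 5 concentrations. Step 3: Interpolate endpoints linearly; if unreached, use highest concentration. GI50 marks 50% less growth.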 Activity calls are given as the source filed them. No stated cut-off is given here; in the data, active = GI50 up to about 1.1 µM and inactive = higher.

Common to all, as to test: inhibition of tumour cell growth, NCI panel, 48 h
The subject of experiment [1] is A549.
Experiment [2] concerns K562.
Experiment [3] relates to CAKI-1.
Experiment [4] concerns EKVX.
Experiment [5] concerns COLO 205.
In experiment [6] the test system is UACC-257.
Experiment [7] deals with RPMI-8226.
The subject of experiment [8] is HOP-92.
Experiment [9] has as its system UACC-62.
Experiment [10] has as its system HOP-62.
Experiment [11] deals with KM12.
Experiment [12] deals with HCT-15.
Experiment [13] relates to SF-295.
Experiment [14] deals with OVCAR-4.
Experiment [15] deals with Malme-3M.
In experiment [16] the test system is A498.
In experiment [17] the test system is NCI-H460.
The test system of experiment [18] is DU-145.
Experiment [19] has as its system NCI-H226.
Experiment [20] has as its system SR.

Consider `COc1ccc(-c2nc(SCC(=O)N/N=C/c3ccc([N+](=O)[O-])cc3)[nH]c2-c2ccc(OC)cc2)cc1`, for which the GI50 in [1] was 6.95 µM (inactive); in experiment [2] it was 7.45 µM (inactive); in experiment [3], 28.1 µM (inactive); in [4], 16.4 µM (inactive); in experiment [5] it was 2.23 µM (inactive); in [6], 16.4 µM (inactive). Further, the GI50 in [7] was 8.91 µM (inactive); in [8], 12.6 µM (inactive); in experiment [9], 7.01 µM (inactive); in [10] it was 16.7 µM (inactive); in [11], 4.86 µM (inactive); in experiment [12] it was 8.55 µM. The GI50 in experiment [13] was 8.05 µM (inactive); in experiment [14] it was 39.4 µM (inactive); in experiment [15], 17.5 µM (inactive); in [16], 14.3 µM (inactive); in experiment [17], 10.3 µM (inactive); in experiment [18] it was 28 µM (inactive).

In the case of `COc1ccc(CC(COS(=O)(=O)c2ccc(C)cc2)NS(=O)(=O)c2ccc(C)cc2)cc1` (centres undefined), the GI50 in experiment [1] was 12.1 µM (inactive); in [2] it was 43.2 µM (inactive); in [19], 7.4 µM (inactive); in experiment [3] it was 17.4 µM (inactive); in experiment [4], 14.6 µM (inactive); in experiment [5], 11.7 µM (inactive). Further, the GI50 in [6] is 15.8 µM (inactive); in experiment [7], 15.2 µM (inactive); in experiment [8], 6.56 µM (inactive); in experiment [9] it was 6.98 µM (inactive); in experiment [10] it was 16.7 µM (inactive); in [11], 16.9 µM (inactive). Further, the GI50 in experiment [12] is 14.2 µM; in experiment [13], 13.7 µM (inactive); in experiment [14], 20.7 µM (inactive); in experiment [15], 10.7 µM (inactive); in experiment [16], 12.8 µM (inactive); in [17], 11.5 µM (inactive). Further, the GI50 in experiment [18] was 10.8 µM (inactive).

Consider `CCOC(=O)CCSS(=O)(=O)c1ccccc1`, for which the GI50 is > 100 µM (inactive) in [1]; > 100 µM (inactive) in [19]; > 100 µM (inactive) in experiment [3]; > 100 µM (inactive) in experiment [4]; 97.7 µM (inactive) in experiment [5]; > 100 µM (inactive) in experiment [6]. For the same molecule, the GI50 in [7] was 35 µM (inactive); in experiment [8], 86.7 µM (inactive); in experiment [9] it was > 100 µM (inactive); in [10], > 100 µM (inactive); in experiment [11] it was > 100 µM (inactive); in experiment [12], 53.2 µM. The GI50 in [13], in experiment [14], in [16], in [17] and in experiment [18] was > 100 µM (inactive) in each case.

Regarding `CN(C)C(=S)C(Cl)(c1ccccc1)c1ccccc1`, the GI50 in experiment [1] was 59.8 µM (inactive); in [2], 36.2 µM (inactive); in experiment [19], 53.7 µM (inactive); in [3], > 100 µM (inactive); in experiment [4] it was 27.8 µM (inactive); in experiment [5], 85.7 µM (inactive). The GI50 in experiment [6] was > 100 µM (inactive); in experiment [8], > 100 µM (inactive); in [9] it was > 100 µM (inactive); in experiment [10] it was > 100 µM (inactive); in [11], 46.3 µM (inactive); in experiment [12], 63 µM. Besides, the GI50 in experiment [13] was > 100 µM (inactive); in experiment [14] it was 35.4 µM (inactive); in experiment [15] it was > 100 µM (inactive); in [16], > 100 µM (inactive); in experiment [17] it was > 100 µM (inactive); in [18] it was 40.6 µM (inactive).

For the molecule `C=C1CC2(CCCC3(CC(=C)C(=O)O3)C2(C)C)OC1=O` (centres undefined), the GI50 in [1] was 13.8 µM (inactive); in experiment [2] it was 3.38 µM (inactive); in experiment [19], 2.22 µM (inactive); in experiment [3], 2.7 µM (inactive); in [4], 4.02 µM (inactive); in [5] it was 2.21 µM (inactive). In addition, the GI50 in experiment [6] was 1.85 µM (inactive); in [7], 0.47 µM (active); in [8], 5.85 µM (inactive); in experiment [9], 2 µM (inactive); in experiment [10], 13.9 µM (inactive); in experiment [11] it was 8.11 µM (inactive). For the same molecule, the GI50 in [12] was 0.491 µM; in experiment [13], 16.5 µM (inactive); in [14], 4.85 µM (inactive); in experiment [15], 1.64 µM (inactive); in experiment [16], 21.4 µM (inactive); in experiment [17], 18.7 µM (inactive). Moreover, in [18], the GI50 was 3.73 µM (inactive).

For the molecule `Nc1nc(Br)nc2ncn(C3CC(O)C(CO)O3)c12` (centres undefined), the GI50 in [1] was 18 µM (inactive); in experiment [2], 23.4 µM (inactive); in [19], > 68.1 µM (inactive); in [3] it was 16 µM (inactive); in experiment [4], > 100 µM (inactive); in [5] it was 67.3 µM (inactive). Besides, the GI50 is > 100 µM (inactive) in experiment [6]; > 90.2 µM (inactive) in experiment [7]; 2.42 µM (inactive) in experiment [8]; 11.9 µM (inactive) in experiment [9]; > 100 µM (inactive) in experiment [10]; > 100 µM (inactive) in experiment [11]. Also, the GI50 in [12] was greater than 100 µM; in [13] it was > 100 µM (inactive); in experiment [14], > 100 µM (inactive); in [15], > 100 µM (inactive); in [16], > 100 µM (inactive); in experiment [17], 85.1 µM (inactive). Also, the GI50 in [18] was > 100 µM (inactive).

Take `CCCCc1ccc(-n2sc3ncc([N+](=O)[O-])cc3c2=O)cc1`: the GI50 in experiment [1] was 12.9 µM (inactive); in experiment [19], 12.8 µM (inactive); in experiment [3] it was 13.4 µM (inactive); in [4] it was 13.6 µM (inactive); in experiment [5] it was 18.4 µM (inactive); in experiment [6], 16.6 µM (inactive). Besides, the GI50 is 9.12 µM (inactive) in experiment [7]; 8.69 µM (inactive) in [9]; 14.4 µM (inactive) in [10]; 16 µM (inactive) in experiment [20]; 12 µM (inactive) in experiment [11]; 15.1 µM in [12]. In addition, the GI50 in experiment [13] is 10.5 µM (inactive); in experiment [14], 6.58 µM (inactive); in [15] it was 7.8 µM (inactive); in experiment [17], 12.7 µM (inactive); in [18], 23.3 µM (inactive).

Regarding `Oc1ccc(-c2nc(-c3ccc4ccccc4n3)c(-c3ccc(F)cc3)[nH]2)cc1`, the GI50 in [1] was 11.6 µM (inactive); in experiment [2], 14.5 µM (inactive); in [19] it was 14.2 µM (inactive); in experiment [3], 13.6 µM (inactive); in experiment [4] it was 17.8 µM (inactive); in experiment [5], 14.6 µM (inactive). For the same molecule, the GI50 is 13.5 µM (inactive) in experiment [6]; 5.62 µM (inactive) in [7]; 11.5 µM (inactive) in [9]; 18 µM (inactive) in experiment [10]; 6.25 µM (inactive) in experiment [20]; 5.26 µM (inactive) in experiment [11]. Also, the GI50 was 10.7 µM in experiment [12]; 10.4 µM (inactive) in experiment [13]; 11.2 µM (inactive) in [14]; 13.7 µM (inactive) in experiment [15]; 5.45 µM (inactive) in experiment [17]; 15.5 µM (inactive) in [18].

For `C[C@@]1(CO)[C@H](O)CC[C@@]2(C)[C@H]1CC[C@H]1C[C@@H]3C[C@@]12CC[C@@]3(O)COC(=O)CN`, the GI50 in [2] is 5.55 µM (inactive); in experiment [3], 0.762 µM (active); in experiment [4], 16.4 µM (inactive); in experiment [5], 19.1 µM (inactive); in [6], 33.9 µM (inactive); in [7], 6.56 µM (inactive). Further, the GI50 in experiment [8] is 20.4 µM (inactive); in experiment [9], 2.32 µM (inactive); in experiment [10], 14 µM (inactive); in experiment [20], 0.811 µM (active); in [11], 28 µM (inactive); in experiment [14], 49.8 µM (inactive). Further, the GI50 in experiment [18] was 2.67 µM (inactive).

Turning to `CCN(CC)C(=O)N1CN(c2ccccc2)C2(CCN(CCCC3(c4ccc(F)cc4)OCCO3)CC2)C1=O`, the GI50 in experiment [1] was 29.3 µM (inactive); in [19] it was 30.5 µM (inactive); in experiment [3], > 100 µM (inactive); in experiment [4], 25.9 µM (inactive); in [5], 3.13 µM (inactive); in experiment [6] it was 12.4 µM (inactive). The GI50 in experiment [7] is 12.9 µM (inactive); in experiment [9], 17.4 µM (inactive); in experiment [10], 4.26 µM (inactive); in experiment [20], 11.6 µM (inactive); in experiment [11], 16.5 µM (inactive); in [12], 15.2 µM. Moreover, the GI50 in experiment [13] was 25.4 µM (inactive); in experiment [14] it was 22.4 µM (inactive); in [15] it was 19.1 µM (inactive); in [18], 12.2 µM (inactive).

Turning to `N#Cc1nc(-c2ccco2)oc1N`, the GI50 in experiment [1], in experiment [2], in experiment [19], in [3], in experiment [4] and in [5] was > 10 µM (inactive) throughout. Besides, the GI50 in experiment [6], in experiment [7], in [8], in experiment [9], in [10] and in experiment [20] was > 10 µM (inactive) in each case. Also, the GI50 was > 10 µM (inactive) in experiment [11]; greater than 10 µM in experiment [12]; > 10 µM (inactive) in experiment [13]; > 10 µM (inactive) in [14]; > 10 µM (inactive) in experiment [15]; > 10 µM (inactive) in [17]. Further, the GI50 in experiment [18] is > 10 µM (inactive).

Take `CN(C(=O)c1ccc(Cl)cc1)C(=S)N1CCN(c2ccccc2)CC1`: the GI50 in experiment [1] was 89.1 µM (inactive); in experiment [2], 42.1 µM (inactive); in experiment [19], 47.5 µM (inactive); in experiment [5] it was 50.9 µM (inactive); in experiment [6], 71.4 µM (inactive); in experiment [7], 64.3 µM (inactive). The GI50 was 89.5 µM (inactive) in experiment [8]; 92.5 µM (inactive) in [9]; 35.2 µM (inactive) in experiment [20]; 53.2 µM (inactive) in experiment [11]; 87.5 µM in [12]; > 100 µM (inactive) in experiment [13]. Further, the GI50 in [14] was > 100 µM (inactive); in experiment [15] it was > 100 µM (inactive); in [17], 37.8 µM (inactive); in experiment [18] it was > 100 µM (inactive).
